Test results from US20230321086A1, “METHODS AND MATERIALS FOR INHIBITING NICOTINAMIDE PHOSPHORIBOSYLTRANSFERASE ACTIVITY” (Universiy of Pittsburgh - Of the Commonwealth System of …, priority 2020, published 2023).

System: A431 cells
Assay: Assay for total NADH and NAD+ measurements in cells
Assay type: cell-based
Design: C: change in NAD levels in response to test compound, shown as % of NAD activity in the absence of test compound: concentration or dose not given beside the values
Conditions: percent of NAD level of untreated control cells (100 = no change)
Experimental: 2,000 cells/well and, at the same time, test compounds dissolved in media at the desired concentration were added to each well. The treated cells were incubated overnight in C02 incubator. The cells were washed 6 times with PBS with 1 mM CaCl2) and 1 mM MgCl2. In the last wash, 10 μL of PBS with 1 mM CaCl2) and 1 mM MgCl2 per well were left in each well. Immediately thereafter, 10 μL 0.4% dodecyltrimethylammonium bromide (DTAB) in phosphate buffer pH 8.0 as added, and the plates were shaked at 1000 rpm for 5 minutes. 60 μL reaction mix was added, and fluorescence at Ex/Em 530/585 was immediately monitored. A linear increase should be achieved with 8 cycles every 92 seconds, 10 number of flashes/well/cycle. The reaction mix was prepared per the following table, respecting the amount and order in which each component was added:
All assays were performed in A431 cells. Referring to the tables below, activity: “+” ≥25 μM, “++” ≥1 μM and <25 μM, and “+++”<1 μM.
In each table header, A: NAMPT enzyme inhibitory activity, IC50 (μM); B: Cellular NAD inhibitory activity, IC50 (μM); and C: change in NAD levels in response to test compound, shown as % of NAD activity in the absence of test compound. […] A percentage of 100 percent would indicate no increase or decrease in NAD levels as compared to that measured for untreated control cells, while a percentage of 50 percent would indicate a decrease in NAD levels of 50 percent as compared to that measured for untreated control cells.

| Compound | C: change in NAD levels in response to test compound, shown as % of NAD activity in the absence of test compound [%] |
| --- | --- |
| Cn1cnnc1-c1ccc2nc(-c3ccc(F)cc3)c(-c3ccc(F)cc3)nc2c1 [BC19101] | 53 |
| CN1CCN(C(=O)c2ccc3nc(C(F)(F)F)c(-c4ccc(F)cc4)nc3c2)CC1 [BC19103] | 92 |
| Cn1nnnc1-c1ccc2nc(C(F)(F)F)c(-c3ccc(F)cc3)nc2c1 [BC19112] | 86 |
| C#CCNC(=O)c1ccc2nc(-c3cccs3)c(-c3ccc(F)cc3)nc2c1 [BC19120] | 84 |
| Cn1nnnc1-c1ccc2nc(-c3ccc(F)cc3)c(-c3ccc(F)cc3)nc2c1 [BC19139] | 29 |
| Cc1cnc(-c2ccc3nc(-c4ccc(F)cc4)c(-c4ccc(F)cc4)nc3c2)o1 [BC19140] | 90 |
| Cc1nnc(-c2ccc3nc(-c4ccc(F)cc4)c(-c4ccc(F)cc4)nc3c2)o1 [BC19141] | 62 |
| CN1CCN(C(=O)c2ccc3nc(C(F)(F)F)c(-c4cccc(F)c4)nc3c2)CC1 [BC19142] | 94 |
| Fc1ccc(-c2nc3ccc(-c4nnc[nH]4)cc3nc2-c2ccc(F)cc2)cc1 [BC19143] | 80 |
| Cn1cc(-c2ccc3nc(-c4ccc(F)cc4)c(-c4ccc(F)cc4)nc3c2)nn1 [BC19148] | 80 |
| Fc1ccc(-c2nc3ccc(-c4c[nH]nn4)cc3nc2-c2ccc(F)cc2)cc1 [BC19150] | 89 |
| Cn1nnnc1-c1ccc2nc(-c3ccc(F)cc3)c(C(F)(F)F)nc2c1 [BC19152] | 93 |
| C#CCNC(=O)c1ccc2nc(-c3ccc(F)cc3)c(-c3ccc(F)cc3)nc2c1 [BC19154] | 73 |
| Fc1ccc(-c2nc3ccc(-c4nnc[nH]4)cc3nc2C(F)(F)F)cc1 [BC19159] | 92 |
| CN1CCN(C(=O)c2ccc3nc(-c4ccc(F)cc4)c(-c4cccs4)nc3c2)CC1 [BC19185] | 94 |
| N#Cc1ccc2nc(-c3ccc(F)cc3)c(-c3ccc(F)cc3)nc2c1 [BC19192] | 76 |
| N=C(NO)c1ccc2nc(-c3ccc(F)cc3)c(-c3ccc(F)cc3)nc2c1 [BC19194] | 45 |
| CC(C)OC(=O)Nc1ccc2nc(-c3ccc(F)cc3)c(-c3ccc(F)cc3)nc2c1 [BC19195] | 90 |
| O=C(NCCN1CCOCC1)c1ccc2nc(-c3ccc(F)cc3)c(-c3ccc(F)cc3)nc2c1 [BC19237] | 24 |
| Fc1ccc(-c2nc3ccc(-c4nnnn4CCN4CCOCC4)cc3nc2-c2ccc(F)cc2)cc1 [BC19238] | 68 |
| O=C(Nc1ccc2nc(-c3ccc(F)cc3)c(-c3ccc(F)cc3)nc2c1)OCC(F)(F)F [BC19239] | 66 |
| Fc1ccc(-c2nc3ccc(-c4cn(CCN5CCOCC5)nn4)cc3nc2-c2ccc(F)cc2)cc1 [BC19240] | 27 |
| Cc1nc(C)c(-c2ccc3nc(-c4ccc(F)cc4)c(-c4ccc(F)cc4)nc3c2)s1 [BC19241] | 79 |
| Fc1ccc(-c2nc3ccc(-c4cccnc4)cc3nc2-c2ccc(F)cc2)cc1 [BC19242] | 72 |
| CS(=O)(=O)c1cncc(-c2ccc3nc(-c4ccc(F)cc4)c(-c4ccc(F)cc4)nc3c2)c1 [BC19243] | 64 |
| CN1CCOc2cc(-c3ccc4nc(-c5ccc(F)cc5)c(-c5ccc(F)cc5)nc4c3)ccc21 [BC19244] | 86 |
| Fc1ccc(-c2nc3ccc(-c4ccncc4)cc3nc2-c2ccc(F)cc2)cc1 [BC19245] | 67 |

| Compound | C: change in NAD levels in response to test compound, shown as % of NAD activity in the absence of test compound [%] |
| --- | --- |
| CCc1nnc(-c2ccc3nc(-c4ccc(F)cc4)c(-c4ccc(F)cc4)nc3c2)o1 [BC19246] | 58 |
| CCCc1nnc(-c2ccc3nc(-c4ccc(F)cc4)c(-c4ccc(F)cc4)nc3c2)[nH]1 [BC19247] | 94 |
| Fc1ccc(-c2nc3ccc(-c4nnco4)cc3nc2-c2ccc(F)cc2)cc1 [BC19250] | 13 |
| O=C(Nc1ccc2nc(-c3ccc(F)cc3)c(-c3ccc(F)cc3)nc2c1)C1CCNCC1 [BC19251] | 0 |
| Cc1nnc(-c2ccc3nc(-c4ccc(F)cc4)c(-c4ccc(F)cc4)nc3c2)n1C [BC19301] | 57 |
| Cn1cc(-c2ccc3nc(-c4ccc(F)cc4)c(-c4ccc(F)cc4)nc3c2)cn1 [BC19302] | 58 |
| Cc1ccncc1-c1ccc2nc(-c3ccc(F)cc3)c(-c3ccc(F)cc3)nc2c1 [BC19304] | 69 |
| Cn1ncc2c(-c3ccc4nc(-c5ccc(F)cc5)c(-c5ccc(F)cc5)nc4c3)cccc21 [BC19305] | 93 |
| Fc1ccc(-c2nc3ccc(-c4nncn4CCN4CCOCC4)cc3nc2-c2ccc(F)cc2)cc1 [BC19306] | 76 |
| Cc1ccc(S(=O)(=O)c2nc3cc(C(=O)N4CCN(C)CC4)ccc3nc2-c2ccc(F)cc2)cc1F [BC19307] | 31 |
| Cc1ccc(S(=O)(=O)c2nc3cc(C(=O)N4CCN(C)CC4)ccc3nc2-c2ccc(F)cc2)cc1 [BC19308] | 48 |
| CN1CCC(C(=O)Nc2ccc3nc(-c4ccc(F)cc4)c(-c4ccc(F)cc4)nc3c2)CC1 [BC19309] | 18 |
| CC(=O)N1CCC(C(=O)Nc2ccc3nc(-c4ccc(F)cc4)c(-c4ccc(F)cc4)nc3c2)CC1 [BC19310] | 52 |
| CNC(=O)N1CCC(C(=O)Nc2ccc3nc(-c4ccc(F)cc4)c(-c4ccc(F)cc4)nc3c2)CC1 [BC19311] | 63 |
| CS(=O)(=O)N1CCC(C(=O)Nc2ccc3nc(-c4ccc(F)cc4)c(-c4ccc(F)cc4)nc3c2)CC1 [BC19312] | 54 |
| C=CC(=O)Nc1ccc2nc(-c3ccc(F)cc3)c(-c3ccc(F)cc3)nc2c1 [BC19313] | 91 |
| CC#CC(=O)Nc1ccc2nc(-c3ccc(F)cc3)c(-c3ccc(F)cc3)nc2c1 [BC19314] | 33 |
| C[C@H](Cl)C(=O)Nc1ccc2nc(-c3ccc(F)cc3)c(-c3ccc(F)cc3)nc2c1 [BC19315] | 89 |
| CN1CCN(C(=O)c2ccc3nc(-c4ccc(F)cc4)c(-c4ccc(Cl)cc4)nc3c2)CC1 [BC19317] | 42 |
| CN1CCN(C(=O)c2ccc3nc(-c4ccc(F)cc4)c(-c4ccc(F)cc4F)nc3c2)CC1 [BC19318] | 67 |
| CCc1ccc(-c2nc3cc(C(=O)N4CCN(C)CC4)ccc3nc2-c2ccc(F)cc2)cc1 [BC19319] | 95 |
| C#CCNC(=O)c1cccc2nc(-c3ccc(F)cc3)c(-c3ccc(F)cc3)nc12 [BC19321] | 72 |
| CN1CCN(C(=O)c2ccc3nc(-c4ccc(F)cc4)c(S(=O)(=O)c4cccc(F)c4)nc3c2)CC1 [BC19395] | 71 |
| OCCn1cc(-c2ccc3nc(-c4ccc(F)cc4)c(-c4ccc(F)cc4)nc3c2)nn1 [BC19396] | 60 |
| C#CC(=O)Nc1ccc2nc(-c3ccc(F)cc3)c(-c3ccc(F)cc3)nc2c1 [BC19397] | 65 |
| CN1CCN(C(=O)c2ccc3nc(-c4ccc(F)cc4)c(-c4ccc(Cl)cc4Cl)nc3c2)CC1 [BC19398] | 94 |
